Source: the NIST ThermoML archive (doi:10.1021/je500804j)

Experiment: mn = molality of the nth substance listed, in mol/kg
Details: 101 kPa, Liquid, Alternating current cell with electrodes

CCCCCCCC[N+](C)(C)CCCCCC[N+](C)(C)CCCCCCCC.[Br-].[Br-] + O
Details	electrical conductivity [S/m]
313.15 K, m1 = 0.1169	1.553
318.15 K, m1 = 0.00396	0.09519
318.15 K, m1 = 0.00782	0.2003
318.15 K, m1 = 0.01158	0.2945
318.15 K, m1 = 0.01525	0.381
318.15 K, m1 = 0.01883	0.4611
318.15 K, m1 = 0.02233	0.5339
318.15 K, m1 = 0.02574	0.6047
318.15 K, m1 = 0.02907	0.6691
318.15 K, m1 = 0.03233	0.7314
318.15 K, m1 = 0.03551	0.7874
318.15 K, m1 = 0.03862	0.8418
318.15 K, m1 = 0.04166	0.8941
318.15 K, m1 = 0.04463	0.9453
318.15 K, m1 = 0.04754	0.9898
318.15 K, m1 = 0.05038	1.036
318.15 K, m1 = 0.05589	1.12
318.15 K, m1 = 0.05856	1.154
318.15 K, m1 = 0.06117	1.192
318.15 K, m1 = 0.06373	1.221
318.15 K, m1 = 0.06624	1.254
318.15 K, m1 = 0.06869	1.281
318.15 K, m1 = 0.0711	1.313
318.15 K, m1 = 0.07346	1.338
318.15 K, m1 = 0.07577	1.367
318.15 K, m1 = 0.07804	1.392
318.15 K, m1 = 0.08027	1.412
318.15 K, m1 = 0.08245	1.437
318.15 K, m1 = 0.08459	1.458
318.15 K, m1 = 0.0867	1.474
318.15 K, m1 = 0.08876	1.498
318.15 K, m1 = 0.09078	1.51
318.15 K, m1 = 0.09277	1.532
318.15 K, m1 = 0.09473	1.547
318.15 K, m1 = 0.09665	1.567
318.15 K, m1 = 0.09853	1.582
318.15 K, m1 = 0.1004	1.591
318.15 K, m1 = 0.1022	1.609
318.15 K, m1 = 0.104	1.626
318.15 K, m1 = 0.1057	1.636
318.15 K, m1 = 0.1075	1.647
318.15 K, m1 = 0.1092	1.659
318.15 K, m1 = 0.1109	1.674
318.15 K, m1 = 0.1125	1.687
318.15 K, m1 = 0.1141	1.699
318.15 K, m1 = 0.1157	1.713
318.15 K, m1 = 0.1173	1.724
318.15 K, m1 = 0.1188	1.732
318.15 K, m1 = 0.1203	1.749
318.15 K, m1 = 0.1218	1.761
323.15 K, m1 = 0.00396	0.123
323.15 K, m1 = 0.00782	0.2241
323.15 K, m1 = 0.01158	0.3183
323.15 K, m1 = 0.01526	0.4132
323.15 K, m1 = 0.01884	0.5013
323.15 K, m1 = 0.02233	0.5818
323.15 K, m1 = 0.02575	0.6582
323.15 K, m1 = 0.02908	0.7289
323.15 K, m1 = 0.03234	0.7956
323.15 K, m1 = 0.03552	0.8617
323.15 K, m1 = 0.03863	0.9197
323.15 K, m1 = 0.04167	0.9784
323.15 K, m1 = 0.04464	1.033
323.15 K, m1 = 0.04755	1.084
323.15 K, m1 = 0.0504	1.133
323.15 K, m1 = 0.05591	1.222
323.15 K, m1 = 0.05858	1.262
323.15 K, m1 = 0.06119	1.299
323.15 K, m1 = 0.06375	1.336
323.15 K, m1 = 0.06625	1.367
323.15 K, m1 = 0.06871	1.396
323.15 K, m1 = 0.07112	1.427
323.15 K, m1 = 0.07348	1.453
323.15 K, m1 = 0.07579	1.485
323.15 K, m1 = 0.07806	1.514
323.15 K, m1 = 0.08029	1.542
323.15 K, m1 = 0.08247	1.564
323.15 K, m1 = 0.08461	1.59
323.15 K, m1 = 0.08672	1.613
323.15 K, m1 = 0.08878	1.634
323.15 K, m1 = 0.09081	1.651
323.15 K, m1 = 0.0928	1.671
323.15 K, m1 = 0.09475	1.694
323.15 K, m1 = 0.09667	1.71
323.15 K, m1 = 0.09855	1.728
323.15 K, m1 = 0.1004	1.745
323.15 K, m1 = 0.1022	1.761
323.15 K, m1 = 0.104	1.776
323.15 K, m1 = 0.1058	1.788
323.15 K, m1 = 0.1075	1.804
323.15 K, m1 = 0.1092	1.816
323.15 K, m1 = 0.1109	1.832
323.15 K, m1 = 0.1125	1.841
323.15 K, m1 = 0.1141	1.854
323.15 K, m1 = 0.1157	1.866
323.15 K, m1 = 0.1173	1.881
323.15 K, m1 = 0.1188	1.893
323.15 K, m1 = 0.1203	1.901
323.15 K, m1 = 0.1218	1.917
